These results are taken from patent publication US12390430B1 (SpringWorks Therapeutics, Inc., priority 2024, dated 2025).

Series [1] can be described thus: Excretion of radioactivity and unchanged mirdametinib. In kind it is in vivo.
Series [2] is described as follows: Human plasma protein binding. In kind it is in vitro ADME.
The nature of series [3]: Clinical pharmacokinetics of mirdametinib (Table A). The series is classed as in vivo, human. The conditions noted are these: for Tmax / AUC(0-t) / Cmax: human, plasma; for Tmax: oral, read-out: Tmax [median (range)]; for AUC(0-t) / Cmax: po, steady state, BID oral dosing; for AUC(0-t): read-out: Steady-state exposure AUClast [geometric mean (geometric % CV)]; for Cmax: read-out: Steady-state exposure Cmax [geometric mean (geometric % CV)]. The protocol:
Study treatment was administered orally at a twice daily (BID) dose specified in the table below. Dosing was on a 28-day Cycle (4-week course) with a 3 week on/1 week off schedule. The treatment period will last for up to 24 Cycles followed by a 30-day Safety Follow-Up period.

The mark [4] stands for this setting: geometric least squares mean ratio.
The mark [5] stands for this setting: pediatric patients (2 to <18 years).

Molecules are shown by their SMILES. Read-outs that look alike come from different tables or passages of the source.

`O=C(NOC[C@H](O)CO)c1ccc(F)c(F)c1Nc1ccc(I)cc1F` (single isomer, unassigned) [mirdametinib]: the “Excretion: radioactivity in feces” value in series [1] (feces) is listed as “In feces: 27%”. Further, in series [1] (urine), the “Excretion: radioactivity in urine” value is on record as “In urine: 68%” and the “Excretion: unchanged mirdametinib in urine” value is reported as “In urine: 0.7%”. Besides, in series [1] (urine and feces), the “Excretion: unchanged mirdametinib in urine and feces” value is “In urine and feces: 9%”. In series [2], this compound came in with a fraction unbound of less than 0.01. Moreover, in series [3] (setting [4]), the “Food effect on AUCinf [GMR% (90% CI)]” value is reported as 93% (90%, 96%) and the “Food effect on Cmax [GMR% (90% CI)]” value is listed as 57% (54%, 61%). Moreover, in series [3] (capsule), the Tmax stood at 64.8 min. In series [3] (tablet), the Tmax came to 49.8 min. For the same compound, the AUC(0-t) in series [3] (adult patients (>18 years)) was found to be 431 ng·h/mL. Moreover, in series [3] (adult patients (≥18 years)), the Cmax came out at 188 ng/mL. In series [3] (setting [5]), the AUC(0-t) is 459 ng·h/mL and the Cmax is 191 ng/mL.

Broadly, the fraction unbound is the share of the substance not bound to proteins or other matrix. High values mean much free substance, low ones little free substance. By Tmax is commonly meant the time from dosing to the highest level. Usually Cmax stands for the peak of the concentration-time curve.
